Reference: patent publication US9642860B2, “Combinations of corroles and statins” (Technion Research & Development Foundation Limited, priority 2011, dated 2017)
Each block holds one compound with its values, some of them ahead of it.

Assays:
J774.A1 macrophages = assay: Cholesterol biosynthesis model: acetate incorporation into cholesterol in macrophages; format: cell-based, Murine; details: 24 h incubation
Text: Accumulation of cholesterol within arterial macrophages is a step in the development of atherosclerosis (M. Aviram 2004). Statins can lower the levels of cholesterol biosynthesis in arterial macrophages. The cholesterol biosynthesis model which was employed determined the effect of various agents (pravastatin alone, fluvastatin alone, 1-Fe alone in various concentrations, 1-Fe in combination with pravastatin and 1-Fe in combination with fluvastatin) on reduction of cholesterol biosynthesis in macrophages.
Murine J774.A1 macrophages were cultured in DMEM (Dulbecco's Modified Eagle Medium) containing 5% FCS (fetal calf serum) in a humidified incubator. […] The effect of different concentrations of 1-Fe on cholesterol biosynthesis from acetate and on 1-Fe cellular uptake were determined by incubating J774.A1 macrophages for 24 h (hours) with 0, 5, 20 or 50 μM (micromolar) of 1-Fe. Intracellular corrole concentrations were then determined by a chemiluminescent method, and cholesterol biosynthesis was assayed by measuring acetate incorporation into cholesterol. […] Unesterified cholesterol spots were visualized by iodine vapor (using appropriate standard), scraped into scintillation vials and counted in a β-counter. 0.1 M (molar) NaOH (sodium hydroxide) was added to the remains of the cells, and cellular proteins were measured the following day by the Lowry method. […]

[1] = target: T1, HMG-CoA reductase (HMGCR) (Homo sapiens, UniProt P04035); assay: HMG-CoA reductase-catalyzed reaction inhibition (CoA byproduct by HPLC); format: biochemical; details: read-out: Inhibition Percent
T1 sequence (P04035 426-888 limits assumed): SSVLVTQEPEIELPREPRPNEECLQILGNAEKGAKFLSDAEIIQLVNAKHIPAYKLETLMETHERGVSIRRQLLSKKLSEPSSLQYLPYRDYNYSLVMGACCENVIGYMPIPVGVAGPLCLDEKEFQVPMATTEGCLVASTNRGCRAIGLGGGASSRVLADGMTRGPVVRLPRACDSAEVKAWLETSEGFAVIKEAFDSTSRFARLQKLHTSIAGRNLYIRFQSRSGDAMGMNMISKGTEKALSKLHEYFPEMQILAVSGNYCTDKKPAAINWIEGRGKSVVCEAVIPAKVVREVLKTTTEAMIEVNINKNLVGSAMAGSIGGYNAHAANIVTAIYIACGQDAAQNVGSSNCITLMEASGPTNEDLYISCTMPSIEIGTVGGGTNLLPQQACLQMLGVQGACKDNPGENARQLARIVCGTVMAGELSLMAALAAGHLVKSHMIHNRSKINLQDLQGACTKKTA
Protocol: The effects of 1-Fe and statins fluvastatin and pravastatin alone and in combination on mevalonic acid production were tested using the following in vitro method.
Substrates of the HMGCR catalyzed reaction, NADPH (400 μM] and HMGCR (200 μM) were mixed in activity buffer comprising 100 mM sodium phosphate buffer, 1 mM ethylenediaminetetraacetic acid (EDTA), 10 mM dithiothreitol, 2% dimethyl sulfoxide, and 1 mM magnesium sulphate, the mixture having a pH of 6.8. 1-Fe, PS, or FS (alone or as a corrole statin combination) were added to the substrate mixture at various concentrations, followed by addition of HMGCR (0.48 μM). Reactions were then incubated at 37° C. for 15 minutes, followed by injection of 80 μl (microliter) to a reverse phase GraceSmart RP18 high performance liquid chromatography column (HPLC). […] As mevalonate concentration is difficult to identify in reaction mixture because it has no absorbance in the UV range, the yield of each reaction was calculated from the amount of CoA byproduct formed in the reaction after subtracting the baseline amount of CoA present as an impurity in the commercial HMG-CoA determined by injecting the substrate mixture alone. The inhibition percentage was calculated from the yield of each reaction relative to the yield of the enzymatic reaction without the addition of inhibitor.

[2] = high dose 80 mg, over five years, compared to moderate dose statins; cited from earlier work

inhibition at 1 µM ([1]; FS 1 micromolar alone): 9%
Compound: CC(C)n1c(/C=C/C(O)CC(O)CC(=O)O)c(-c2ccc(F)cc2)c2ccccc21 (centres unmarked) [FS, fluvastatin]
reduction of macrophage biosynthesis of cholesterol (J774.A1 macrophages; 20 μM FS alone): 25%

Compound: CC[C@H](C)C(=O)O[C@H]1C[C@H](O)C=C2C=C[C@H](C)[C@H](CC[C@@H](O)C[C@@H](O)CC(=O)O)[C@H]21 [PS, pravastatin]
reduction of macrophage biosynthesis of cholesterol (J774.A1 macrophages; 200 μM PS alone): 10% | inhibition at 5 µM ([1]; PS 5 micromolar alone): 17%

Compound: CC(C)c1c(C(=O)Nc2ccccc2)c(-c2ccccc2)c(-c2ccc(F)cc2)n1CC[C@@H](O)C[C@@H](O)CC(=O)O [atorvastatin]
increase in the chance of developing Type 2 diabetes [2]: 12%
